# Assay results from US11844801B2, “Oral compositions of MK2 pathway inhibitor for treatment of immune conditions” (priority 2020, dated 2023).
# “And” between values parts separate entries of the source, which are not always exact repeats. Identical values can stand only once. Like-named read-outs stand apart in the source and are kept apart here. Marks after values point to notes of the source that are not given here.
# Assay: Phase 1 SAD/MAD pharmacokinetics of oral ATI-450 in healthy subjects (incl. 80/120 mg BID extension)
# Format: in vivo, human
# Details: for Cmax: read-out: Cmax; for concentration at 2 day: day 2; for concentration at 3 day: day 3; for concentration at 4 day: day 4; for concentration at 5 day: day 5; for concentration at 6 day: day 6; for Vd/F: read-out: Vss/F
# Procedure: Study Design. […] Single ascending dose (SAD) cohorts. […] Multiple ascending dose (MAD) cohorts. […] Blood Sampling and Bioanalysis. Two-milliliter blood samples were collected for PK analysis. […] The lower limit of quantification was 0.500 ng/mL. Pharmacokinetics. […] Bioanalysis Assay of ATI-450. Sample processing was performed by protein precipitation using a 50.0-μL sample volume. […] A triple quadrupole 6500 mass spectrometer equipped with a turbo-ion spray source was used for detection in positive ion mode. […] A linear calibration curve ranging from 0.500 to 500 ng/mL with a 1/x^2 weighting factor was used. The method was minimally required to have intra- and inter-day precision (coefficients of variation) for pooled plasma quality control samples of ≤15% except at the lower limit of quantitation, where ≤20% was acceptable. The calculated concentrations (both inter- and intra-day) were required to be within 15% of nominal at all concentrations except the lower limit of quantitation, where up to 20% deviation from nominal was acceptable. The precision and accuracy of the method exceeded these minimum requirements for assay validation.
# [1] = both sexes, human, plasma, oral, 80 mg, 80 mg BID, read-out: Ctrough
# [2] = both sexes, human, plasma, oral, 80 mg, 80 mg BID, day 7
# [3] = both sexes, human, plasma, oral, 120 mg, 120 mg BID, day 1
# [4] = both sexes, human, plasma, oral, 120 mg, 120 mg BID, read-out: Ctrough
# [5] = both sexes, human, plasma, oral, 120 mg, 120 mg BID, day 7
# [6] = both sexes, human, plasma, po, 10 mg, single oral dose 10 mg, fasted
# [7] = both sexes, human, plasma, po, 30 mg, single oral dose 30 mg, fasted
# [8] = both sexes, human, plasma, po, 50 mg, single oral dose 50 mg, fasted
# [9] = both sexes, human, plasma, po, 100 mg, single oral dose 100 mg, fasted
# [10] = both sexes, human, plasma, po, 100 mg, single oral dose 100 mg, fed (high-fat, high-calorie breakfast)
# [11] = single oral dose 100 mg, fasted
compound,measurement,setting,value
"Cc1cnc(-c2ccnc(C(C)(C)O)n2)cc1-n1c(C)cc(OCc2ncc(F)cc2F)c(Cl)c1=O (single isomer, unassigned) [ATI-450, 3-chloro-4-((3,5-difluoropyridin-2-yl)methoxy)-2′-(2-(2-hydroxypropan-2-yl)pyrimidin-4-yl)-5′,6-dimethyl-2H-[1,4′-bipyridin]-2-one]",Cmax,"both sexes, human, plasma, oral, 80 mg, 80 mg BID, day 1",258 ± 83.8 ng/mL
same,Tmax,"both sexes, human, plasma, oral, 80 mg, 80 mg BID, day 1, read-out: Tmax, median (min, max)",2 h
same,concentration at 2 day,[1],176 ± 67.5 ng/mL
same,concentration at 3 day,[1],149 ± 54 ng/mL
same,concentration at 4 day,[1],148 ± 59.9 ng/mL
same,concentration at 5 day,[1],145 ± 78.3 ng/mL
same,concentration at 6 day,[1],144 ± 64.9 ng/mL
same,AUC,[2],2550 ± 730 ng·h/mL
same,AUC(0-t),"both sexes, human, plasma, oral, 80 mg, 80 mg BID, day 7, read-out: AUC0-24, total daily exposure calculated as AUC0-12 × 2",5100 ng·h/mL
same,AUC(0-t),"both sexes, human, plasma, oral, 80 mg, 80 mg BID, day 7, read-out: AUC0-t",4030 ± 1150 ng·h/mL
same,concentration at 7 day,"both sexes, human, plasma, oral, 80 mg, 80 mg BID, day 7, read-out: Cavg",212 ± 60.8 ng/mL
same,Cmax,[2],389 ng/mL
same,concentration at 7 day,"both sexes, human, plasma, oral, 80 mg, 80 mg BID, day 7, read-out: Cmin",100 ± 39.8 ng/mL
same,Tmax,"both sexes, human, plasma, oral, 80 mg, 80 mg BID, day 7, read-out: Tmax, median (min, max)",2 h
same,half-life,"both sexes, human, plasma, oral, 80 mg, 80 mg BID, day 7, read-out: t1/2 (converted)",14.3 ± 5.3 h
same,concentration at 7 day,"both sexes, human, plasma, oral, 120 mg BID, day 7, read-out: Ctrough",156 ng/mL
same,AUC,[3],2320 ± 383 ng·h/mL
same,AUC(0-t),"both sexes, human, plasma, oral, 120 mg, 120 mg BID, day 1, read-out: AUC0-t",2310 ± 380 ng·h/mL
same,Cmax,[3],379 ± 60.6 ng/mL
same,Tmax,"both sexes, human, plasma, oral, 120 mg, 120 mg BID, day 1, read-out: Tmax, median (min, max)",3 h
same,concentration at 2 day,[4],152 ± 93.3 ng/mL
same,concentration at 3 day,[4],144 ± 98.8 ng/mL
same,concentration at 4 day,[4],126 ± 84.4 ng/mL
same,concentration at 5 day,[4],145 ± 67.5 ng/mL
same,concentration at 6 day,[4],161 ± 87.5 ng/mL
same,AUC,[5],2580 ± 1030 ng·h/mL
same,AUC(0-t),"both sexes, human, plasma, oral, 120 mg, 120 mg BID, day 7, read-out: AUC0-24, total daily exposure calculated as AUC0-12 × 2",5160 ng·h/mL
same,AUC(0-t),"both sexes, human, plasma, oral, 120 mg, 120 mg BID, day 7, read-out: AUC0-t",4170 ± 2090 ng·h/mL
same,concentration at 7 day,"both sexes, human, plasma, oral, 120 mg, 120 mg BID, day 7, read-out: Cavg",215 ± 85.9 ng/mL
same,Cmax,[5],416 ng/mL
same,concentration at 7 day,"both sexes, human, plasma, oral, 120 mg, 120 mg BID, day 7, read-out: Cmin",96.1 ± 64.1 ng/mL
same,Tmax,"both sexes, human, plasma, oral, 120 mg, 120 mg BID, day 7, read-out: Tmax, median (min, max)",2 h
same,half-life,"both sexes, human, plasma, oral, 120 mg, 120 mg BID, day 7, read-out: t1/2 (converted)",8.7 ± 2.4 h
same,half-life,"both sexes, human, plasma, oral, MAD cohorts 10-50 mg BID, day 7, read-out: terminal half-life (mean t1/2), range over cohorts",9 to 12 h
same,half-life,"both sexes, human, plasma, oral, SAD cohorts, fasted, read-out: mean t1/2, range across dose cohorts",9 to 11 h
same,Tmax,"both sexes, human, plasma, oral, SAD cohorts, fasted, read-out: median Tmax, range across dose cohorts",2 to 4 h
same,Vd/F,"both sexes, human, plasma, oral, 50 mg BID, day 7",586 ± 163 L
same,Vd/F,"both sexes, human, plasma, oral, 80 mg BID, day 7",690 ± 294 L
same,Vd/F,"both sexes, human, plasma, oral, 120 mg BID, day 7",621 ± 183 L
same,AUC(0-inf),[6],285 ng·h/mL
same,Cmax,[6],39.4 ng/mL
same,Tmax,"both sexes, human, plasma, po, 10 mg, single oral dose 10 mg, fasted, read-out: Tmax, median (min, max)",2 h
same,half-life,"both sexes, human, plasma, po, 10 mg, single oral dose 10 mg, fasted, read-out: t1/2 (converted)",8.5 h
same,AUC(0-inf),[7],1100 ng·h/mL
same,Cmax,[7],122 ng/mL
same,Tmax,"both sexes, human, plasma, po, 30 mg, single oral dose 30 mg, fasted, read-out: Tmax, median (min, max)",4 h
same,half-life,"both sexes, human, plasma, po, 30 mg, single oral dose 30 mg, fasted, read-out: t1/2 (converted)",10.7 h
same,AUC(0-inf),[8],1460 ng·h/mL
same,Cmax,[8],161 ng/mL
same,Tmax,"both sexes, human, plasma, po, 50 mg, single oral dose 50 mg, fasted, read-out: Tmax, median (min, max)",3 h
same,half-life,"both sexes, human, plasma, po, 50 mg, single oral dose 50 mg, fasted, read-out: t1/2 (converted)",9.1 h
same,AUC(0-inf),[9],3650 ng·h/mL
same,Cmax,[9],426 ng/mL
same,Tmax,"both sexes, human, plasma, po, 100 mg, single oral dose 100 mg, fasted, read-out: Tmax, median (min, max)",2 h
same,half-life,"both sexes, human, plasma, po, 100 mg, single oral dose 100 mg, fasted, read-out: t1/2 (converted)",11.2 h
same,AUC(0-inf),[10],4100 ng·h/mL
same,Cmax,[10],371 ng/mL
same,Tmax,"both sexes, human, plasma, po, 100 mg, single oral dose 100 mg, fed (high-fat, high-calorie breakfast), read-out: Tmax, median (min, max)",6 h
same,half-life,"both sexes, human, plasma, po, 100 mg, single oral dose 100 mg, fed (high-fat, high-calorie breakfast), read-out: t1/2 (converted)",6.3 h
same,AUC(0-t),"single oral dose 10 mg, fasted",276.3 ± 77.8 ng·h/mL
same,CL/F,"single oral dose 10 mg, fasted",37.0 ± 8.8 L/h
same,"Tmax, median (min, max)","single oral dose 10 mg, fasted",2.0 (2.0-4.0) h
same,Vz/F,"single oral dose 10 mg, fasted",430.2 ± 124.0 L
same,t1/2,"single oral dose 10 mg, fasted",8.5 ± 3.2 h
same,AUC(0-t),"single oral dose 30 mg, fasted",1074.0 ± 243.5^a h*ng/mL
same,CL/F,"single oral dose 30 mg, fasted",28.4 ± 7.1^a L/h
same,"Tmax, median (min, max)","single oral dose 30 mg, fasted",4.0 (2.0-4.1) h
same,Vz/F,"single oral dose 30 mg, fasted",451.4 ± 201.5^a L
same,AUC(0-t),"single oral dose 50 mg, fasted",1430.0 ± 254.0 ng·h/mL
same,CL/F,"single oral dose 50 mg, fasted",35.1 ± 6.3 L/h
same,"Tmax, median (min, max)","single oral dose 50 mg, fasted",3.0 (2.0-4.0) h
same,Vz/F,"single oral dose 50 mg, fasted",445.0 ± 94.7 L
same,t1/2,"single oral dose 50 mg, fasted",9.1 ± 2.4 h
same,AUC(0-t),[11],3489.8 ± 475.7 ng·h/mL
same,CL/F,[11],27.9 ± 4.3 L/h
same,"Tmax, median (min, max)",[11],"2.0 (2.0, 4.0) h and 2.0 (2.0-4.0) h"
same,Vz/F,[11],439.8 ± 189.7 L
same,t1/2,[11],11.2 ± 5.8 h
same,"Tmax, median (min, max)","single oral dose 100 mg, fed (high-fat, high-calorie breakfast)","6.0 (4.0, 12.0) h"
same,steady state reached by day,"twice-daily administration, all dose levels 10-50 mg",≤ 2 days
